ChEMBL document CHEMBL3727364, “Resorcinol n-aryl amide compounds, for use as pyruvate dehydrogenase kinase inhibitors” (2015)

The compounds below were run against [Pyruvate dehydrogenase (acetyl-transferring)] kinase isozyme 1, mitochondrial (Homo sapiens, UniProt Q15118) (assay: Binding affinity to pyruvate dehydrogenase kinase 1 (unknown origin) incubated for 90 mins by VER-00160364 probe based fluorescence polarization assay).
Sequence of [Pyruvate dehydrogenase (acetyl-transferring)] kinase isozyme 1, mitochondrial (Q15118 whole entry): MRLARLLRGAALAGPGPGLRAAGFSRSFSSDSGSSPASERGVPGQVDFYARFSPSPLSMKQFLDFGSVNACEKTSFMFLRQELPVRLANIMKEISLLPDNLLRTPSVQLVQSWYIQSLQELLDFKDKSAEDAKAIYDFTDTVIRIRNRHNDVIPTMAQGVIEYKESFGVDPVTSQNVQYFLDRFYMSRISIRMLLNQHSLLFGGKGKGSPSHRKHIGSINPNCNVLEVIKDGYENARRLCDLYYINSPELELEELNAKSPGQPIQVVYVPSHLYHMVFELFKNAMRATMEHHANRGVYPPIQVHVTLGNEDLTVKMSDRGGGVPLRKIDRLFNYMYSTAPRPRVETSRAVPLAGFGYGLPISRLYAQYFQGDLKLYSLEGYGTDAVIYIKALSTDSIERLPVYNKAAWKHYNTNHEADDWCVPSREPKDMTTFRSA

Compound | IC50 [nM]
CN(C)C(=O)c1ccc(N(CCN2CCCCC2)C(=O)c2cc(Cl)c(O)cc2O)cc1 | 100
CN(Cc1ccc2nccnc2c1)C(=O)c1ccc(N(Cc2cccnc2)C(=O)c2ccc(O)cc2O)cc1 | 10
CCNc1cc(-c2ccc(N(Cc3ccsc3)C(=O)c3ccc(O)cc3O)cc2)ncn1 | 10000
Cc1cccnc1-c1ccc(N(Cc2ccccc2)C(=O)c2cc(Cl)c(O)cc2O)cc1 | 1000
COc1cnc(Cl)nc1-c1ccc(N(Cc2ccsc2)C(=O)c2ccc(O)cc2O)cc1 | 100
O=C(c1ccc(O)cc1O)N(Cc1cccnc1)c1ccc(-c2cc3cncnc3[nH]2)cc1 | 1000
Cc1cc(-c2ccc(N(Cc3cccnc3)C(=O)c3ccc(O)cc3O)cc2)nnc1Cl | 1000
C[C@@H](c1ccccc1)N(C(=O)c1cc(Cl)c(O)cc1O)c1ccc(C(=O)N(C)C)cc1 | 1000
Cc1cc2cc(F)ccc2nc1-c1ccc(N(Cc2ccsc2)C(=O)c2ccc(O)cc2O)cc1 | 1000
O=C(c1ccc(O)cc1O)N(Cc1cccnc1)c1ccc(-c2ccc(N3CCCC3)nn2)cc1 | 100
O=C(c1ccc(O)cc1O)N(Cc1cccnc1)c1ccc(-c2ccc(NC3CC3)nn2)cc1 | 1000
Cc1cc2ccccc2nc1-c1ccc(N(Cc2ccc(F)cc2)C(=O)c2ccc(O)cc2O)cc1 | 100
Cc1cc2cccc(C)c2nc1-c1ccc(N(Cc2cccnc2)C(=O)c2ccc(O)cc2O)cc1 | 1000
Cc1ccc(CN(C(=O)c2cc(Cl)c(O)cc2O)c2ccc(C(=O)N(C)C)cc2)cc1 | 100
O=C(c1ccc(O)cc1O)N(Cc1cccnc1)c1ccc(-c2ccnc3ccsc23)cc1 | 100
CC(=O)NCCNS(=O)(=O)c1cnc(-c2ccc(N(Cc3cccnc3)C(=O)c3ccc(O)cc3O)cc2)c(C)c1 | 10

Compound | IC50 [nM]
COc1cnc(-c2ccc(N(Cc3cccnc3)C(=O)c3ccc(O)cc3O)cc2)cc1OC | 100
COc1cnc(Cl)nc1-c1ccc(N(Cc2ccccc2)C(=O)c2cc(C)c(O)cc2O)cc1 | 1000
O=C(c1ccc(O)cc1O)N(Cc1ccsc1)c1ccc(-c2ncccc2CO)cc1 | 100
CCc1cc2ccccc2nc1-c1ccc(N(Cc2cccnc2)C(=O)c2ccc(O)cc2O)cc1 | 100
Cc1cc(S(=O)(=O)NCc2ccccc2)cnc1-c1ccc(N(Cc2ccccc2)C(=O)c2ccc(O)cc2O)cc1 | 100
Cc1sc2ncnc(-c3ccc(N(Cc4ccsc4)C(=O)c4ccc(O)cc4O)cc3)c2c1C | 1000
Cc1cc2ccccc2nc1-c1ccc(N(Cc2cc(F)cc(F)c2)C(=O)c2ccc(O)cc2O)cc1 | 1000
CN(Cc1ccc2c(ccn2C)c1)C(=O)c1ccc(N(Cc2ccsc2)C(=O)c2ccc(O)cc2O)cc1 | 1000
Cc1cnc(Cl)nc1-c1ccc(N(Cc2ccc(CN3CCCC3)cc2)C(=O)c2ccc(O)cc2O)cc1 | 10
O=C(c1ccc(O)cc1O)N(Cc1ccccc1)c1ccc(-c2nc(Cl)nc3[nH]ccc23)cc1 | 1000
Cc1c(-c2ccc(N(Cc3ccccc3)C(=O)c3ccc(O)cc3O)cc2)ccc2[nH]ncc12 | 1000
Cc1cnc(Cl)nc1-c1ccc(N(Cc2ccc(C#N)cc2)C(=O)c2ccc(O)cc2O)cc1 | 100
Cc1cc(S(=O)(=O)N2CCCCC2)cnc1-c1ccc(N(Cc2cccnc2)C(=O)c2ccc(O)cc2O)cc1 | 10
CSc1nc(Cl)cc(-c2ccc(N(Cc3cccnc3)C(=O)c3ccc(O)cc3O)cc2)n1 | 1000
CN(C)C(=O)c1ccc(N(Cc2ccc(C(F)(F)F)cc2)C(=O)c2cc(Cl)c(O)cc2O)cc1 | 100
Cc1cnc(Cl)nc1-c1ccc(N(C(=O)c2ccc(O)cc2O)[C@H](C)c2ccccc2)cc1 | 100

Other lines, results leading:

IC50 [nM] | Compound
10 | Cc1cc2ccccc2nc1-c1ccc(N(Cc2cccnc2)C(=O)c2ccc(O)cc2O)cc1
100 | Cc1cc(N)cnc1-c1ccc(N(Cc2ccccc2)C(=O)c2ccc(O)cc2O)cc1
100 | Cc1cc2ccc(F)cc2nc1-c1ccc(N(Cc2ccsc2)C(=O)c2ccc(O)cc2O)cc1
1000 | Cc1cnc(Cl)nc1-c1ccc(N(C(=O)c2ccc(O)cc2O)C(C)c2ccccc2)cc1 (configuration not stated)
1000 | COc1ccc(CN(C)C(=O)c2ccc(N(Cc3cccc(C)c3)C(=O)c3cc(Cl)c(O)cc3O)cc2)cc1
10 | CN(Cc1cccc2cnccc12)C(=O)c1ccc(N(Cc2ccsc2)C(=O)c2ccc(O)cc2O)cc1
10 | CN(C)C(=O)c1ccc(N(Cc2ccsc2)C(=O)c2ccc(O)cc2O)cc1
1000 | O=C(Nc1ccc(N(Cc2ccccc2)C(=O)c2ccc(O)cc2O)cc1)Nc1cccnc1
10 | Cc1cc(S(=O)(=O)N2CCCCC2)cnc1-c1ccc(N(Cc2ccsc2)C(=O)c2ccc(O)cc2O)cc1
1000 | CN(C)C(=O)c1ccc(N(Cc2ccncc2)C(=O)c2cc(Cl)c(O)cc2O)cc1
1000 | CSc1nc(-c2ccc(N(Cc3ccsc3)C(=O)c3ccc(O)cc3O)cc2)c2cc[nH]c2n1
100 | Cc1cc(C(=O)N(Cc2ccsc2)c2ccc(C(=O)N(C)C)cc2)c(O)cc1O
100 | Cc1nccnc1-c1ccc(N(Cc2cccnc2)C(=O)c2ccc(O)cc2O)cc1
10 | Cc1cc(S(=O)(=O)NCc2cccnc2)cnc1-c1ccc(N(Cc2ccsc2)C(=O)c2ccc(O)cc2O)cc1
1000 | O=C(c1ccc(O)cc1O)N(Cc1cccnc1)c1ccc(-c2nccc3occc23)cc1
100 | O=C(c1ccc(O)cc1O)N(Cc1cccnc1)c1ccc(-c2ccncc2C(F)(F)F)cc1
10 | Cc1ncc(C)c(-c2ccc(N(Cc3ccsc3)C(=O)c3ccc(O)cc3O)cc2)n1
1000 | Cc1cccnc1-c1ccc(N(Cc2ccccc2)C(=O)c2ccc(O)cc2O)cc1

IC50 [nM] | Compound
1000 | COc1ccccc1-c1ccc(N(Cc2cccnc2)C(=O)c2ccc(O)cc2O)cc1
100 | O=C(c1ccc(O)cc1O)N(Cc1cccnc1)c1ccc(-c2nc(Cl)nc3[nH]ccc23)cc1
10000 | O=C(c1ccc(O)cc1O)N(Cc1ccccc1)c1ccc(-c2ncnc3ccsc23)cc1
1000 | O=C(c1ccc(O)cc1O)N(Cc1ccccc1)c1ccc(-c2nc(Cl)nc3c2COCC3)cc1
100 | CN(Cc1ccc2ncccc2c1)C(=O)c1ccc(N(Cc2cccnc2)C(=O)c2ccc(O)cc2O)cc1
100 | NC(=O)c1nc(-c2ccc(N(Cc3cccnc3)C(=O)c3ccc(O)cc3O)cc2)c2ccccc2n1
100 | Cc1nc(-c2ccc(N(Cc3cccnc3)C(=O)c3ccc(O)cc3O)cc2)c2ccccc2n1
10 | Cc1cnc(-c2ccc(N(Cc3cccnc3)C(=O)c3ccc(O)cc3O)cc2)c(C)n1
100 | CCCc1cncnc1-c1ccc(N(Cc2cccnc2)C(=O)c2ccc(O)cc2O)cc1
100 | CC(c1ccccc1)N(C(=O)c1cc(Cl)c(O)cc1O)c1ccc(C(=O)N(C)C)cc1 (configuration not stated)
100 | CNS(=O)(=O)c1cnc(-c2ccc(N(Cc3ccccc3)C(=O)c3ccc(O)cc3O)cc2)c(C)c1
100 | O=C(c1ccc(O)cc1O)N(Cc1ccsc1)c1ccc(-c2ncnc3cccc(F)c23)cc1
100 | O=C(c1ccc(O)cc1O)N(Cc1cccnc1)c1ccc(-c2ncccc2CO)cc1
100 | CCc1nccnc1-c1ccc(N(Cc2ccccc2)C(=O)c2ccc(O)cc2O)cc1
100 | CCc1nccnc1-c1ccc(N(Cc2ccsc2)C(=O)c2ccc(O)cc2O)cc1
1000 | CSc1nc(-c2ccc(N(Cc3ccccc3)C(=O)c3ccc(O)cc3O)cc2)c2cc[nH]c2n1
100 | Cc1cc2ccccc2nc1-c1ccc(N(Cc2ccsc2)C(=O)c2ccc(O)cc2O)cc1
